Laboratory results: patent US11883538B2, “Sustained release compositions comprising micronized tolcapone” (Som Innovation Biotech, S.L., priority 2016, dated 2024)

Assay: Determination of tolcapone's particle size (laser analyzer MASTERSIZER 2000, Ph. Eur. 2.9.31)
Type: physicochemical
Settings: wet dispersion in water for injection
From the text: Determination of Tolcapone's Particle Size
Particle size measurement (Dv,0.1, Dv,05, Dv,0.9 and Dv,1.0) may be determined according to the general method described in section 2.9.31 of the European Pharmacopeia in particular using a particle size laser analyzer MASTERSIZER 2000 from Malvern featuring a wet dispersion unit HYDRO 2000 SM for small volumes of sample.
Material: • Sample: Tolcapone suspension • Refraction index: 1.59 (default) • Dispersant: water for injection • Refraction index: 1.33
Cycles: • Measurements for each aliquot: 3 • Lag time: 12 s • Pump stirring velocity: 2500 rpm
Measuring Time: • Measure: 12 s (in triplicates) • Measure snaps: 12000 • Background: 10 s • Background snaps: 10000
Three readings are made for each sample.
Thus, Dv,0.9 lower than 54.33 μm that 90% of the volume of the particles is in particles which are smaller 54.33 μm.

SMILES	Dv,0.1 [μm]	Dv,0.5 [μm]	Dv,0.9 [μm]	Dv,1.0 [μm]
Cc1ccc(C(=O)c2cc(O)c(O)c([N+](=O)[O-])c2)cc1 [micronized tolcapone, (3,4-dihydroxy-5-nitrophenyl)(4-methylphenyl)methanone]	<6.09	<17.62	<54.33	<316.23
Cc1ccc(C(=O)c2cc(O)c(O)c([N+](=O)[O-])c2)cc1 [non-micronized tolcapone, (3,4-dihydroxy-5-nitrophenyl)(4-methylphenyl)methanone]	<22.45	<87.23	<307.86	<1096.48
